Experiment: Boiling stability of micronutrients in water at 100 °C (simulated cooking)
Format: physicochemical
Method: To evaluate the effects on VA stabilization, VA (10% wt) was encapsulated with MPs fabricated from PAE_C, PAE_D, or PAE_E. The resulting MPs were tested in boiling water for 2 hours.
The boiling stability of micronutrients in PAE MP was studied in water at 100° C. At each time point, samples were lyophilized to obtain the boiled product.
High-performance liquid chromatography (HPLC), inductively coupled plasma-optical emission spectrometer (ICP-OES), and colorimetric assay kits were used for micronutrient quantification.

CCCCCCCCCCCCCCCC(=O)OC/C=C(C)/C=C/C=C(C)/C=C/C1=C(C)CCCC1(C)C [VA, retinyl palmitate]
VA recovered after boiling for 0.5 h: less than 20%

Reference: patent US20250144032A1, “POLY(BETA-AMINO ESTER) MICROPARTICLES FOR MICRONUTRIENT FORTIFICATION” (Massachusetts Institute of Technology, priority 2021, published 2025)
